Measured values from US4073902A, “O-Substituted 7β-amino-3-cephem-3-ol-4-carboxylic acid compounds” (priority 1972, dated 1978).

Key:
Shigella flexneri 11836 = assay: oral ED50, systemic infection in mice; format: in vivo, Shigella flexneri; female MF 2 mice; conditions: p.o., 2 doses
[1] = system: Staphylococcus aureus 10B; assay: oral ED50, systemic infection in mice; conditions: in Mus musculus, read-out: oral ED50
From the text: (§4) *single dose of antibiotic administered immediately after infection

S. aureus 2999 i^+ p^+ = assay: oral ED50, systemic infection in mice; conditions: Staphylococcus aureus, in Mus musculus, read-out: oral ED50
From the text: as §4

[2] = system: S. aureus 102 (methicillin res.); assay: oral ED50, systemic infection in mice; conditions: Staphylococcus aureus, in Mus musculus, read-out: oral ED50
From the text: as §4

[3] = system: Streptococcus pyogenes 38; assay: oral ED50, systemic infection in mice; conditions: Streptococcus pyogenes, 38, in Mus musculus, 3 h, read-out: oral ED50
S. pyogenes Aronson = assay: oral ED50, systemic infection in mice; conditions: Streptococcus pyogenes, in Mus musculus, read-out: oral ED50
[4] = system: Diplococcus pneumoniae 111/84; assay: oral ED50, systemic infection in mice; conditions: Streptococcus pneumoniae, 111/84, in Mus musculus, read-out: oral ED50
Escherichia coli 205 = assay: oral ED50, systemic infection in mice; conditions: Escherichia coli, 205, in Mus musculus, read-out: oral ED50
E. coli 205 R^+TEM = assay: oral ED50, systemic infection in mice; conditions: Escherichia coli, in Mus musculus, read-out: oral ED50
From the text: (§5) **two doses; the first administered immediately after infection, the

E. coli 2018 = assay: oral ED50, systemic infection in mice; conditions: Escherichia coli, 2018, in Mus musculus, read-out: oral ED50
From the text: as §5

E. coli 2018 R^+TEM = assay: oral ED50, systemic infection in mice; conditions: Escherichia coli, in Mus musculus, read-out: oral ED50
From the text: as §5

E. coli 2 = assay: oral ED50, systemic infection in mice; conditions: Escherichia coli, 2, in Mus musculus, read-out: oral ED50
From the text: as §5

E. coli 5 = assay: oral ED50, systemic infection in mice; conditions: Escherichia coli, 5, in Mus musculus, read-out: oral ED50
From the text: as §5

E. coli 9 = assay: oral ED50, systemic infection in mice; conditions: Escherichia coli, 9, in Mus musculus, read-out: oral ED50
From the text: as §5

E. coli 16 = assay: oral ED50, systemic infection in mice; conditions: Escherichia coli, 16, in Mus musculus, read-out: oral ED50
From the text: as §5

E. coli 9-25.1. = assay: oral ED50, systemic infection in mice; conditions: Escherichia coli, 925.1., in Mus musculus, read-out: oral ED50
From the text: as §5

E. coli 1239/19 = assay: oral ED50, systemic infection in mice; conditions: Escherichia coli, 1239/19, in Mus musculus, read-out: oral ED50
From the text: as §5

[5] = system: Salmonella typhimurium 273; assay: oral ED50, systemic infection in mice; conditions: Salmonella enterica, in Mus musculus, read-out: oral ED50
From the text: as §5

S. typhimurium 277 = assay: oral ED50, systemic infection in mice; conditions: Salmonella enterica, in Mus musculus, read-out: oral ED50
[6] = system: Klebsiella pneumoniae 327; assay: oral ED50, systemic infection in mice; conditions: Klebsiella pneumoniae, 327, in Mus musculus, read-out: oral ED50
K. pneumoniae 329 = assay: oral ED50, systemic infection in mice; conditions: Klebsiella pneumoniae, 329, in Mus musculus, read-out: oral ED50
[7] = system: Enterobacter cloacae P 99; assay: oral ED50, systemic infection in mice; conditions: P99, in Mus musculus, read-out: oral ED50
proteus morganii 2359 = assay: oral ED50, systemic infection in mice; conditions: Morganella morganii, 2359, in Mus musculus, read-out: oral ED50
P. vulgaris 1076 = assay: oral ED50, systemic infection in mice; conditions: Proteus vulgaris, 1076, in Mus musculus, read-out: oral ED50
P. rettgeri 856 = assay: oral ED50, systemic infection in mice; conditions: Providencia rettgeri, 856, in Mus musculus, read-out: oral ED50
P. mirabilis 774 = assay: oral ED50, systemic infection in mice; conditions: Proteus mirabilis, 774, in Mus musculus, read-out: oral ED50
Serratia marcescens 344 = assay: oral ED50, systemic infection in mice; conditions: Serratia marcescens, 344, in Mus musculus, read-out: oral ED50
Pasteurella multocid 341 = assay: oral ED50, systemic infection in mice; conditions: Pasteurella, 341, in Mus musculus, read-out: oral ED50
[8] = system: Pseudomonas aeruginosa 799; assay: oral ED50, systemic infection in mice; conditions: Pseudomonas aeruginosa, 799, in Mus musculus, read-out: oral ED50
in vivo = conditions: mouse, in vivo
From the text: (§1) ^a calcultated according to Miller-Tainter ± standard error (Proc.
(§2) ^b calculated according to the Probit-method with 95% confidence
(§3) limits (Goulden A., Methods of Statistical Analysis, J. Wiley and Sons, […]

mice = assay: in vivo; conditions: mice; in words, compared with II and IV
From the text: as §1, §2, §3

bactericidal activity = conditions: in words, compared with cephradin (III) and cephalexin (IV)
solubility in urin = format: physicochemical; conditions: in words, compared with compound II
[9] = system: systemic infections due to various bacterial strains; conditions: female MF 2 mice; in words, compared with II, III, IV

SMILES | ED50 (Shigella flexneri 11836) [mg/kg] | ED50 [1] [mg/kg] | ED50 (S. aureus 2999 i^+ p^+) [mg/kg] | ED50 [2] [mg/kg] | ED50 [3] [mg/kg] | ED50 (S. pyogenes Aronson) [mg/kg] | ED50 [4] [mg/kg] | ED50 (Escherichia coli 205) [mg/kg] | ED50 (E. coli 205 R^+TEM) [mg/kg] | ED50 (E. coli 2018) [mg/kg] | ED50 (E. coli 2018 R^+TEM) [mg/kg] | ED50 (E. coli 2) [mg/kg] | ED50 (E. coli 5) [mg/kg] | ED50 (E. coli 9) [mg/kg] | ED50 (E. coli 16) [mg/kg] | ED50 (E. coli 9-25.1.) [mg/kg] | ED50 (E. coli 1239/19) [mg/kg] | ED50 [5] [mg/kg] | ED50 (S. typhimurium 277) [mg/kg] | ED50 [6] [mg/kg] | further results
CC1=C(C(=O)O)N2C(=O)[C@@H](NC(=O)[C@H](N)c3ccccc3)[C@H]2SC1 [cephalexin] | 7 | 6.6 | 85 | 120 | 6 | 6.3 | 30 | 40 | 40 | 13 | 25 | > 1000 | 28 | 90 | > 300 | > 300 | 20 | 140 | 100 | 105 | ED50 (K. pneumoniae 329): 47 mg/kg; ED50 [7]: > 300 mg/kg; ED50 (proteus morganii 2359): > 1000 mg/kg; ED50 (P. vulgaris 1076): 45 mg/kg; ED50 (P. rettgeri 856): 15 to 30 mg/kg; ED50 (P. mirabilis 774): 80 mg/kg; ED50 (Serratia marcescens 344): > 300 mg/kg; ED50 (Pasteurella multocid 341): 66 mg/kg; ED50 [8]: > 1000 mg/kg
CC1=C(C(=O)O)N2C(=O)[C@@H](NC(=O)[C@H](N)C3=CCC=CC3)[C@H]2SC1 [cephradine] | 11 | 6 | 32 | 76 | 8 | 5.5 | 40 | 52 | 16 | 13 | 38 | > 300 | > 30 | ≥ 300 | > 300 | > 300 | ~25 | 80 | 110 | 250 | ED50 (K. pneumoniae 329): 120 mg/kg; ED50 [7]: > 1000 mg/kg; ED50 (proteus morganii 2359): > 1000 mg/kg; ED50 (P. vulgaris 1076): 80 mg/kg; ED50 (P. rettgeri 856): ≥ 30 mg/kg; ED50 (P. mirabilis 774): ~50 mg/kg; ED50 (Serratia marcescens 344): > 1000 mg/kg; ED50 (Pasteurella multocid 341): 110 mg/kg; ED50 [8]: > 300 mg/kg
COC1=C(C(=O)O)N2C(=O)[C@@H](NC(=O)[C@H](N)c3ccccc3)[C@H]2SC1 [compound II] | 20 | 6 | 210 | 100 | 7.5 | 2.5 | 16 | 22 | 48 | 15 | 38 | > 1000 | 13 | 210 | > 300 | > 300 | 12 | 60 | 65 | 75 | LD50 (in vivo; ip): 3800 ± 290 mg/kg; LD50 (in vivo; po): > 6000 mg/kg; ED50 (K. pneumoniae 329): 35 mg/kg; ED50 [7]: > 300 mg/kg; ED50 (proteus morganii 2359): > 300 mg/kg; ED50 (P. vulgaris 1076): 25 mg/kg; ED50 (P. rettgeri 856): 14 mg/kg; ED50 (P. mirabilis 774): 54 mg/kg; ED50 (Serratia marcescens 344): > 1000 mg/kg; ED50 (Pasteurella multocid 341): ~20 mg/kg; ED50 [8]: > 300 mg/kg
COC1=C(C(=O)O)N2C(=O)[C@@H](NC(=O)[C@H](N)C3=CCC=CC3)[C@H]2SC1 [compound I] | 25 | 3.3 | 25 | 17.5 | 1 | 1 | 8.5 | 9.5 | 7.3 | 3 | 14 | ~140 | 7.8 | ~30 | > 300 | ≥ 300 | 4 | 30 | 30 | 40 | LD50 (in vivo; ip): 7090 mg/kg; LD50 (in vivo; po): > 6000 mg/kg; acute toxicity (mice): more favourable as the acute toxicity of compounds II and IV; bactericidal activity (bactericidal activity): surprisingly stronger bactericidal activity as compared to cephradin (III) and cephalexin (IV); solubility in urin (solubility in urin): higher as compared to compound II; chemotherapeutic activity [9]: surprisingly stronger chemotherapeutic activity; ED50 (K. pneumoniae 329): 17 mg/kg; ED50 [7]: > 300 mg/kg; ED50 (proteus morganii 2359): > 300 mg/kg; ED50 (P. vulgaris 1076): 20 mg/kg; ED50 (P. rettgeri 856): 6.8 mg/kg; ED50 (P. mirabilis 774): 16 mg/kg; ED50 (Serratia marcescens 344): > 300 mg/kg; ED50 (Pasteurella multocid 341): 17 mg/kg; ED50 [8]: > 300 mg/kg
